According to patent publication US20260355330A1, “CELL PENETRATING PEPTIDES AND USES THEREOF” (VECTIOPEP OÜ, priority 2022, published 2026):
Positions of bridges follow the written chain, without caps; N, C: chain ends. Residues, ends and D or L forms follow the SMILES beside them. Chains are numbered I, II in the order given. *: point of attachment. Docosanoyl = CCCCCCCCCCCCCCCCCCCCCC(=O)*; Arachidoyl = CCCCCCCCCCCCCCCCCCCC(=O)*

Columns and labels:
spleen of BALB/c mice = experiment: In vivo delivery of mRNA with CPPs - reporter levels in the spleen; details: for Efficacy of mRNA delivery into the spleen in vivo: FIG. 5 / Table 5; for Reporter levels in the spleen (RLU): mRNA, tail vein injection, spleens harvested 16 hours after single injection, whole tissue homogenate
Description: FIG. 5: Delivery of mRNA with CPPs in vivo—reporter levels in the spleen. Spleens were harvested post mortem 16 hours post-injection. The reporter levels (RLU) were evaluated from the whole tissue homogenate.
The transfection complexes (CPP/mRNA) were formed using 10 μg of mRNA mixed with each peptide at indicated charge ratios (CRs) in MQ water in a final volume of 100 μl. CRs were calculated theoretically and account for both the positive charges of the peptide and negative charges of the nucleic acid. The transfection complexes (CPP/mRNA and CPP/pDNA) were formed using 50 μg of mRNA mixed with each peptide at indicated charge ratios (CRs) in MQ water in a final volume of 168 μl. The complexes were incubated for 30 minutes at room temperature and then mixed with equal volume of 10% glucose (resulting in a final solution of 5% glucose in a total volume of 200 μl for 10 μg dose groups and 336 μl for 50 μg dose groups) and immediately injected intravenously via the tail vein.
The reporter gene (luciferase) expression levels were evaluated from the tissue homogenate post mortem 16-24 h after single injection.
CPPs and mRNA complexes were injected through the tail vein of BALB/c mice, spleens were harvested 16 hours after the single injection and reporter signal was measured from the whole tissue homogenate (FIG. 5 and Table 5).

CHO-K1 cells = experiment: Delivery of reporter mRNA with CPPs in cell culture (luciferase luminescence 24 h post-transfection); type: cell-based; details: for Average RLU/mg (reporter levels post-transfection of mRNA): firefly luciferase mRNA, 0.1 μg per well, charge ratio 3:1, serum containing media, 24 h, RLU normalised to total protein in lysate; for Efficiency of mRNA transfection/delivery: FIG. 1 / Table 2, cell culture; for Delivery of mRNA compared to NF55: comparator NF55
Description: FIG. 1: Delivery of reporter mRNA with CPPs in cell culture—evaluation of reporter levels post-transfection (relative light units normalised to total protein in the cell lysate (RLU/mg)). Naked mRNA treated cells were used as controls and Lipofectamine3000 (LF3000) was used to compare the transfection efficacy with a liposome-based transfection reagent.
Adherent CHO-K1 cells were grown in Dulbecco's Modified Eagle's Medium (DMEM), which were supplemented with 0.1 mM non-essential amino acids, 1.0 mM sodium pyruvate, 100 U/ml penicillin, and […]. For complete media, 10% (final) fetal bovine serum (FBS) was added. Cells were maintained in a humidified incubator at 37 °C, 5% CO2. Cell viability and confluence was assessed daily and the cell density was reduced regularly. For cell counting, we used the CytoSMART cell counter accompanied by 0.4% trypan blue staining prior measurement. The multi-well plates with cell cultures used for experiments were incubated in a humidified incubator at 37 °C, 5% CO2.
For in vitro experiments 0.1 μg of nucleic acid (plasmid DNA (pDNA) or mRNA) was used per 96-well plate well. For CPP/NA complex formation, the diluted NA was mixed with CPP in water. Complexes were formed based on the theoretical charge ratio (CR) of positive charges from the peptide in excess to the negative charges from nucleic acid backbone, at charge ratio 3:1 with peptide in excess. Commercial reagent Lipofectamine3000 (LF3000) was used according to the manufacturer's recommendations for the transfection of adherent cells.
For reporter luminescence (expressed from firefly luciferase encoding mRNA or plasmid pDNA) assessment in adherent cell culture, 10,000 cells per 96-well plate well were seeded in 100 μl of media one day prior to transfection. Shortly before transfection, cell media was replaced with 100 μl of serum containing (10% foetal bovine serum) DMEM media. CPPs and mRNA or pDNA were mixed at a charge ratio 3:1 in ultrapure water and incubated at room temperature before addition to cells in serum containing media. Cells were transfected with 0.1 μg of mLuc per well.
24 hours post-transfection, the media was aspirated, cells were washed with 1×PBS, and 30 μl of lysis buffer (0.1% Triton X100 in 1×PBS) was added. Cells were incubated with lysis buffer for 20 min. to lyse the cells. From the lysate, 20 μl was transferred to a black frame white well 96-well plate for luminescence measurement after addition of substrate luciferin (PerkinElmer) in buffer. The luminescence signal was detected with GloMax® 96 microplate luminometer equipped with GloMax® 1.9.2 software (Promega). RLU values were converted to RLU/mg by normalization to total protein in cell lysate, reflecting total number of cells. For protein detection, a Pierce™ BCA Protein Assay Kit was used.
The present inventors have previously reported CPPs developed from the NickFect (NF) and PepFect (PF) families for plasmid (pDNA), siRNA and miRNA delivery (see, e.g. WO 2020/144317, WO 2010/039088 and WO 2012/113846). With the emergence of mRNA-based therapeutics, it was decided to investigate peptides for their ability to deliver mRNA. It was assumed that CPPs that are efficient for siRNA and miRNA delivery, e.g. histidine containing CPPs (Porosk et. al. (2019)), may be good candidates for the delivery of mRNA. Therefore, CPPs from each main family (NF55-, PF14- and NF70-derived CPPs) were tested for mRNA delivery/transfection. Naked mRNA treated and untreated cells were used as control groups. LF3000 was used to compare the transfection efficacy of liposome-based transfection reagents with the CPPs (FIG. 1).

Compound | Efficacy of mRNA delivery into the spleen in vivo (spleen of BALB/c mice; in words) | Delivery of mRNA in vivo compared to NF54 and/or NF55 (spleen of BALB/c mice; in words, comparator NF54 and/or NF55) | Reporter levels in the spleen (RLU) (spleen of BALB/c mice) | Average RLU/mg (reporter levels post-transfection of mRNA) (CHO-K1 cells) | Efficiency of mRNA transfection/delivery (CHO-K1 cells; in words) | Delivery of mRNA compared to NF55 (CHO-K1 cells; in words) | Delivery of mRNA compared to NF54 (CHO-K1 cells; in words, comparator NF54)
CCCCCCCCCCCCCCCCCC(=O)N[C@@H](C)C(=O)NCC(=O)N[C@@H](Cc1ccc(O)cc1)C(=O)N[C@@H](CC(C)C)C(=O)N[C@@H](CC(C)C)C(=O)NCC(=O)NCCC[C@H](N)C(=O)N[C@H](C(=O)N[C@@H](CC(N)=O)C(=O)N[C@@H](CC(C)C)C(=O)N[C@@H](CCCCN)C(=O)N[C@@H](C)C(=O)N[C@@H](CC(C)C)C(=O)N[C@@H](C)C(=O)N[C@@H](C)C(=O)N[C@@H](CC(C)C)C(=O)N[C@@H](C)C(=O)N[C@@H](C)C(=O)N[C@@H](CCCCN)C(=O)N[C@H](C(=O)N[C@@H](CC(C)C)C(N)=O)[C@@H](C)CC)[C@@H](C)CC [NF54] | delivered mRNA into the spleen in vivo with high efficacy | good improvement in mRNA delivery in vivo over NF55 | 225 675 RLU | 2 160 000 000 RLU/mg | the most efficient | significantly improved delivery of mRNA over NF55 | 
CCCCCCCCCCCCCCCCCCCC(=O)N[C@@H](C)C(=O)NCC(=O)N[C@@H](Cc1ccc(O)cc1)C(=O)N[C@@H](CC(C)C)C(=O)N[C@@H](CC(C)C)C(=O)NCC(=O)NCCC[C@H](N)C(=O)N[C@H](C(=O)N[C@@H](CC(N)=O)C(=O)N[C@@H](CC(C)C)C(=O)N[C@@H](CCCCN)C(=O)N[C@@H](C)C(=O)N[C@@H](CC(C)C)C(=O)N[C@@H](C)C(=O)N[C@@H](C)C(=O)N[C@@H](CC(C)C)C(=O)N[C@@H](C)C(=O)N[C@@H](CCCCN)C(=O)N[C@@H](C)C(=O)N[C@H](C(=O)N[C@@H](CC(C)C)C(N)=O)[C@@H](C)CC)[C@@H](C)CC [NF410] |  |  | 36 670 RLU | 1 080 000 000 RLU/mg | the most efficient |  | 
CCCCCCCCCCCCCCCCCCCCCC(=O)N[C@@H](C)C(=O)NCC(=O)N[C@@H](Cc1ccc(O)cc1)C(=O)N[C@@H](CC(C)C)C(=O)N[C@@H](CC(C)C)C(=O)NCC(=O)NCCC[C@H](N)C(=O)N[C@H](C(=O)N[C@@H](CC(N)=O)C(=O)N[C@@H](CC(C)C)C(=O)N[C@@H](CCCCN)C(=O)N[C@@H](C)C(=O)N[C@@H](CC(C)C)C(=O)N[C@@H](C)C(=O)N[C@@H](C)C(=O)N[C@@H](CC(C)C)C(=O)N[C@@H](C)C(=O)N[C@@H](CCCCN)C(=O)N[C@@H](C)C(=O)N[C@H](C(=O)N[C@@H](CC(C)C)C(N)=O)[C@@H](C)CC)[C@@H](C)CC [NF411] | delivered mRNA into the spleen in vivo with high efficacy |  | 161 716 RLU | 2 090 000 000 RLU/mg | the most efficient | good improvement in delivery of mRNA over NF55 | equivalent delivery of mRNA to NF54
CCCCCCCCCCCCCCCCCCCC(=O)N[C@@H](C)C(=O)NCC(=O)N[C@@H](Cc1ccc(O)cc1)C(=O)N[C@@H](CC(C)C)C(=O)N[C@@H](CC(C)C)C(=O)NCC(=O)NCCCC[C@H](N)C(=O)N[C@H](C(=O)N[C@@H](CC(N)=O)C(=O)N[C@@H](CC(C)C)C(=O)N[C@@H](CCCCN)C(=O)N[C@@H](C)C(=O)N[C@@H](CC(C)C)C(=O)N[C@@H](C)C(=O)N[C@@H](C)C(=O)N[C@@H](CC(C)C)C(=O)N[C@@H](C)C(=O)N[C@@H](CCCCN)C(=O)N[C@@H](C)C(=O)N[C@H](C(=O)N[C@@H](CC(C)C)C(N)=O)[C@@H](C)CC)[C@@H](C)CC [NF412] (I: H-KINLKALAALAKAIL-NH2 / II: Arachidoyl-AGYLLG; amide I:1-II:C) |  |  | 36 759 RLU | 393 000 000 RLU/mg |  |  | 
CCCCCCCCCCCCCCCCCCCCCC(=O)N[C@@H](C)C(=O)NCC(=O)N[C@@H](Cc1ccc(O)cc1)C(=O)N[C@@H](CC(C)C)C(=O)N[C@@H](CC(C)C)C(=O)NCC(=O)NCCCC[C@H](N)C(=O)N[C@H](C(=O)N[C@@H](CC(N)=O)C(=O)N[C@@H](CC(C)C)C(=O)N[C@@H](CCCCN)C(=O)N[C@@H](C)C(=O)N[C@@H](CC(C)C)C(=O)N[C@@H](C)C(=O)N[C@@H](C)C(=O)N[C@@H](CC(C)C)C(=O)N[C@@H](C)C(=O)N[C@@H](CCCCN)C(=O)N[C@@H](C)C(=O)N[C@H](C(=O)N[C@@H](CC(C)C)C(N)=O)[C@@H](C)CC)[C@@H](C)CC [NF413] (I: H-KINLKALAALAKAIL-NH2 / II: Docosanoyl-AGYLLG; amide I:1-II:C) |  |  | 50 495 RLU | 678 000 000 RLU/mg |  |  | 
CCCCCCCCCCCCCCCC(=O)N[C@@H](C)C(=O)NCC(=O)N[C@@H](Cc1ccc(O)cc1)C(=O)N[C@@H](CC(C)C)C(=O)N[C@@H](CC(C)C)C(=O)NCC(=O)NCC[C@H](N)C(=O)N[C@H](C(=O)N[C@@H](CC(N)=O)C(=O)N[C@@H](CC(C)C)C(=O)N[C@@H](CCCCN)C(=O)N[C@@H](C)C(=O)N[C@@H](CC(C)C)C(=O)N[C@@H](C)C(=O)N[C@@H](C)C(=O)N[C@@H](CC(C)C)C(=O)N[C@@H](C)C(=O)N[C@@H](CCCCN)C(=O)N[C@@H](C)C(=O)N[C@H](C(=O)N[C@@H](CC(C)C)C(N)=O)[C@@H](C)CC)[C@@H](C)CC [NF422] |  |  |  | 159 000 000 RLU/mg |  |  | 
CCCCCCCCCCCCCCCCCCCCCC(=O)N[C@@H](C)C(=O)NCC(=O)N[C@@H](Cc1ccc(O)cc1)C(=O)N[C@@H](CC(C)C)C(=O)N[C@@H](CC(C)C)C(=O)NCC(=O)NCC[C@H](N)C(=O)N[C@H](C(=O)N[C@@H](CC(N)=O)C(=O)N[C@@H](CC(C)C)C(=O)N[C@@H](CCCCN)C(=O)N[C@@H](C)C(=O)N[C@@H](CC(C)C)C(=O)N[C@@H](C)C(=O)N[C@@H](C)C(=O)N[C@@H](CC(C)C)C(=O)N[C@@H](C)C(=O)N[C@@H](CCCCN)C(=O)N[C@@H](C)C(=O)N[C@H](C(=O)N[C@@H](CC(C)C)C(N)=O)[C@@H](C)CC)[C@@H](C)CC [NF423] |  |  |  | 556 000 000 RLU/mg |  |  | 
NF72: SEQ ID NO: 15; HHHHHHYHHGO*ILLKALKALAKAIL; control/comparator construct [reference compound] |  |  |  | 78 023 RLU/mg |  |  | 
